Marks after values point to notes of the source that are not given here.
Assays:
Format in all cases: in vivo, NMRI:nu/nu mice
[1] = tested on: human breast carcinoma MT-3; assay: Tumor growth inhibition (RTV, T/C) in the MT-3 xenograft mouse tumor model; conditions: for Tumor volume cm^3/d31: day 31; for Tumor volume cm^3/d27: day 27
[2] = Body weight change as sign of toxicity in tumor-bearing mice (docetaxel/paclitaxel studies; MT-3, PC3, A549 models)
Method: (§1) Tumor growth inhibition was used as therapeutic parameter. Additionally, body weight change was determined as signs for toxicity (particularly, potential hematological or gastrointestinal side effects).
Individual body weights of mice were determined twice weekly and mean body weight per group was related to the initial value in percent (body weight change, BWC), see tables in appendix.
Descriptive statistics was performed on the data of body weight and tumor volume. […] Statistical evaluation was performed with the U-test of Mann and Whitney with a significance level of p≦0.05, using the Windows program […] 6.
Tables 18 to 24 summarize the results for the tested Docetaxel conjugates and the reference compound Taxotere®. […] The loss of body weight is known to be an indicator of gastro-intestinal and hepatotoxicity of the tested compound.
The tables show, inter alia, i) the tested compounds, ii) the tumor volume in mice at the day the control group was sacrificed (in cm^3), iii) the lowest value of the relative tumor volume vs. the relative tumor volume of the control group (RTV T/C) together with the day, when this optimum was reached, iv) the maximum body weight loss in mice together with the day, when this minimum was reached. The loss of body weight is known to be an indicator of gastro-intestinal and hepatotoxicity of the tested compound.

[3] = tested on: human prostate carcinoma PC3; assay: Tumor growth inhibition (RTV, T/C) in the PC3 xenograft mouse tumor model; conditions: Table 20; conjugates 1 × 75 mg/kg d6, Docetaxel 5 mg/kg d6-10; i.v.
Method: Each measurement was carried out with a group of 8 mice. The conjugates CDc1, CDc4 and CDc5 were administered once at a dosage of 75 mg/kg body weight on day 6. Taxotere® was administered 5 times at a dosage of 5 mg/kg body weight at days 6 to 10. Median values are given.
(§2) Adult male and female immunodeficient mice NMRI:nu/nu mice (TACONIC Europe, Lille Skensved, Denmark) were used throughout the study.
(§3) The animals were randomly assigned to various experimental groups with 6 to 8 mice each. At treatment initiation the ears of the animals were marked and each cage was labeled with the cage number, study number and animal number per cage.
(§4) The tumor lines A549, PC-3 and MT3 are lines which are commonly used for testing new anticancer drugs or novel therapeutic therapies. A549, PC-3 and MT3 xenografts are growing relatively fast and uniform.
(§5) Tumor cells were thawed and grown under in vitro conditions. […]
as §1
(§6) Tumor diameters were measured twice weekly with a caliper. Tumor volumes were calculated according to V=(length×(width)^2)/2. […] At each measurement day the median and mean tumor volumes per group and also the treated to control (T/C) values in percent were calculated. […]

[4] = tested on: human lung carcinoma A549; assay: Tumor growth inhibition (RTV, T/C) in the A549 xenograft mouse tumor model; conditions: Table 21, conjugates 1 × 75 mg/kg d8, Docetaxel 5 mg/kg d8-12, i.v.
Method: Each measurement was carried out with a group of 8 mice. The conjugates CDc1, CDc4 and CDc5 were administered once at a dosage of 75 mg/kg body weight on day 8. Taxotere® was administered 5 times at a dosage of 5 mg/kg body weight at days 8 to 12. Median values are given.
as §2, §3, §4, §5, §1, §6

[5] = Body weight change as sign of toxicity in mice bearing ASPC-1 xenografts (gemcitabine study); conditions: Table 27, ASPC-1; 60 mg/kg/inj., treatment d 7, 15, 21; day in parentheses
Method: as §1
Individual body weights of mice were determined twice weekly and mean body weight per group was related to the initial value in percent (body weight change, BWC).
Descriptive statistics were performed on the data of body weight and tumor volume. […] Statistical evaluation was performed with the U-test of Mann and Whitney with a significance level of p≦0.05, using the Windows program […] 6.

[6] = tested on: human pancreas carcinoma ASPC-1; assay: Tumor growth inhibition (RTV, T/C) in the ASPC-1 s.c. xenotransplantation model; conditions: Table 27, ASPC-1; day 27; 60 mg/kg/inj., treatment d 7, 15, 21
Excerpt: At treatment initiation the ears of the animals were marked and each cage was labeled with the cage number, study number and animal number per cage.
The human pancreas carcinoma ASPC-1 was used as s.c. xenotransplantation model in immunodeficient female NMRI:nu/nu mice.
They were thawed, expanded in vitro and transplanted as cell suspension subcutaneously (s.c.) in female NMRI:nu/nu mice. The tumor line ASPC-1 is used for testing new anticancer drugs or novel therapeutic strategies. It was therefore selected for this study.
For experimental use 10^7 tumor cells/mouse from the in vitro passage were transplanted s.c. into the flank of each of 10 mice/group at day 0.
At palpable tumor size (30-100 mm^3) treatment started. The application volume was 0.2 ml/20 g mouse body weight. The test compounds, the vehicle controls and the reference compounds were all given intravenously (i.v.).
as §1
Tumor diameters were measured twice weekly with a caliper. Tumor volumes were calculated according to V=(length×(width)^2)/2. For calculation of the relative tumor volume (RTV) the tumor volumes at each measurement day were related to the day of first treatment. […]

[7] = Table 25, MT-3, 12.5 mg/kg/inj. d 7-9, 10 mg/kg/inj. d 10-11
[8] = Table 23, conjugates 1 × 75 mg/kg d7, Docetaxel 5 mg/kg d7-11, i.v.

Q: For `CC(=O)O[C@H]1C(=O)[C@@]2(C)[C@H]([C@H](OC(=O)c3ccccc3)[C@]3(O)C[C@H](OC(=O)[C@H](O)[C@@H](NC(=O)c4ccccc4)c4ccccc4)C(C)=C1C3(C)C)[C@]1(OC(C)=O)CO[C@@H]1C[C@@H]2O` [Paclitaxel, paclitaxel], which “RTV T/C (%) Optimum (at day)” value [1, 7] is on record?
A: Its value is 21.5%.

Q: And the “Tumor volume cm^3/d31” value [1, 7]?
A: Its value is 0.41 +/− 0.21* cm^3.

Q: And the “Tumor volume cm^3/d31” value ([1]; Table 26, MT-3, 10 mg/kg/inj., treatment d 10-14)?
A: The value was 0.673 +/− 0.226* cm^3.

Q: And the “BWC [%] (at day)” value ([2]; Table 25, MT-3 model, 12.5 mg/kg/inj. d 7-9, 10 mg/kg/inj. d 10-11)?
A: The value was −15%.

Q: And the “Toxic deaths (at day)” value ([2]; Table 25, MT-3 model, 12.5 mg/kg/inj. d 7-9, 10 mg/kg/inj. d 10-11, number of mice)?
A: Its value is 1.

Q: What about the “BWC [%] (at day)” value ([2]; Table 26, MT-3 model, 10 mg/kg/inj., treatment d 10-14) of the same compound?
A: Its value is −18%.

Q: And the “Toxic deaths (at day)” value ([2]; Table 26, MT-3 model, 10 mg/kg/inj., treatment d 10-14, number of mice)?
A: Its value is 0.

Q: With `CC(=O)O[C@@]12CO[C@@H]1C[C@H](O)[C@@]1(C)C(=O)[C@H](O)C3=C(C)[C@@H](OC(=O)[C@H](O)[C@@H](NC(=O)OC(C)(C)C)c4ccccc4)C[C@@](O)([C@@H](OC(=O)c4ccccc4)[C@H]21)C3(C)C` [Docetaxel, docetaxel] as the compound, how does the “RTV T/C (%) Optimum (at day)” value [3] read?
A: The value was 2.6%.

Q: What about the “Tumor volume cm^3/d31” value ([1]; Table 18, conjugates 1 × 100 mg/kg d7, Docetaxel 10 mg/kg d7, 9, 11, i.v.) of the same compound?
A: The value was 0.18 +/− 0.10 cm^3.

Q: What about the “RTV T/C (%) Optimum (at day)” value ([1]; Table 18, lowest RTV vs control, conjugates 1 × 100 mg/kg d7, Docetaxel 10 mg/kg d7, 9, 11, i.v.) of the same compound?
A: The value was 10.7%.

Q: And the “RTV T/C (%) Optimum (at day)” value ([1]; Table 19, conjugates 1 × 75 mg/kg d11, Docetaxel 5 mg/kg d11-15, i.v.)?
A: Its value is 54.0%.

Q: What about the “Tumor volume cm^3/d26” value ([1]; Table 19, day 26, conjugates 1 × 75 mg/kg d11, Docetaxel 5 mg/kg d11-15, i.v.) of the same compound?
A: The value was 0.815 +/− 0.383* cm^3.

Q: What about the “RTV T/C (%) Optimum (at day)” value ([1]; Table 22, conjugates 1 × 75 mg/kg d11, Docetaxel 5 mg/kg d11-15, i.v.) of the same compound?
A: Its value is 31.8%.

Q: What about the “Tumor volume cm3/d25” value ([1]; Table 22, day 25, conjugates 1 × 75 mg/kg d11, Docetaxel 5 mg/kg d11-15, i.v.) of the same compound?
A: Its value is 0.517 +/− 0.202* cm3.

Q: What about the “RTV T/C (%) Optimum (at day)” value [1, 8] of the same compound?
A: The value was 43.0%.

Q: What about the “Tumor volume cm^3/d27” value [1, 8] of the same compound?
A: Its value is 0.873 +/− 0.390* cm^3.

Q: And the “RTV T/C (%) Optimum (at day)” value ([1]; Table 24, MT-3, 5 mg/kg/inj., treatment d 8-12, day of optimum in parentheses below)?
A: Its value is 23.1%.

Q: And the “Tumor volume cm^3/d27” value ([1]; Table 24, MT-3, 5 mg/kg/inj., treatment d 8-12)?
A: The value was 0.542 +/− 0.353* cm^3.

Q: And the “Toxic deaths (at day)” value ([2]; Table 18, MT-3 model, conjugates 1 × 100 mg/kg d7, Docetaxel 10 mg/kg d7, 9, 11, i.v., 8 mice per group)?
A: Its value is 4.

Q: What about the “Toxic death (at day)” value ([2]; Table 23, MT-3 model, conjugates 1 × 75 mg/kg d7, Docetaxel 5 mg/kg d7-11, i.v.) of the same compound?
A: The value was 0.

Q: And the “BWC [%] (at day)” value ([2]; mouse, in vivo, 5 mg/kg)?
A: The value was −11%.

Q: And the “RTV T/C (%) Optimum (at day)” value [4]?
A: Its value is 32.3%.

Q: What about the “Tumor volume cm^3/d42” value ([4]; day 42) of the same compound?
A: The value was 0.334 +/− 0.207* cm^3.

Q: Which results are given for `Nc1ccn([C@@H]2O[C@H](CO)[C@@H](O)C2(F)F)c(=O)n1` [Gemcitabine, gemcitabine]?
A: [%] (at day) [head truncated; BWC] [5]: −2.4 (9) %; d27 [head truncated; T/C in percent] [6]: 53.3%
